How the values were obtained:
Influenza A virus [1] = assay: Antiviral activity against Influenza A virus A/WSN/33(H1N1) expressing M2 proton channel S31N mutant infected in MDCK cells assessed as plaque formation at 1 uM preincubated for 30 mins followed by infection measured on day 2 post infection by naphthalene black dye-based assay relative to control; type: functional, A/WSN/1933(H1N1)
Influenza A virus [2] = assay: Antiviral activity against Influenza A virus A/WSN/33(H1N1) expressing M2 proton channel S31N mutant infected in MDCK cells assessed as reduction in plaque formation preincubated for 30 mins followed by infection measured on day 2 post infection by naphthalene black dye-based assay; type: functional, organism-based, A/WSN/1933(H1N1)

c1csc(-c2cc(CNC34CC5COC(CC(C5)C3)C4)no2)c1 (configuration not stated)
Activity (Influenza A virus [1]): 58%

c1c(CNC23CC4CC(CC(C4)C2)C3)noc1C1CC1
Activity (Influenza A virus [1]): 42%

CC1(O)C2CC3CC1CC(NCc1cc(-c4cccs4)on1)(C3)C2 (configuration not stated)
Activity (Influenza A virus [1]): 27%

c1csc(-c2nc(CNC34CC5CC(CC(C5)C3)C4)no2)c1
Activity (Influenza A virus [1]): 66%

Fc1cccc(F)c1-c1cc(CNC23CC4CC(CC(C4)C2)C3)no1
Activity (Influenza A virus [1]): 56%

Oc1ccc(NC23CC4CC(CC(C4)C2)C3)c(O)c1
EC50 (Influenza A virus [2]): 3.2 µM

OC1C2CC3CC1CC(NCc1cc(-c4cccs4)on1)(C3)C2 (configuration not stated)
Activity (Influenza A virus [1]): 10% | EC50 (Influenza A virus [2]): 0.727 µM

OC12CC3CC(O)(C1)CC(NCc1cc(-c4cccs4)on1)(C3)C2
Activity (Influenza A virus [1]): 69% | EC50 (Influenza A virus [2]): 2.5 µM

COc1ccc(-c2cc(CNC34CC5CC(CC(C5)C3)C4)no2)cc1
Activity (Influenza A virus [1]): 59%

COc1ccc(-c2nc(CNC34CC5CC(CC(C5)C3)C4)no2)c(OC)c1
Activity (Influenza A virus [1]): 76%

c1ccc(-c2cc(CNC34CC5CC(CC(C5)C3)C4)no2)cc1
Activity (Influenza A virus [1]): 26%

O=C1C2CC3CC1CC(NCc1cc(-c4cccs4)on1)(C3)C2
Activity (Influenza A virus [1]): 31%

COc1ccc(-c2nc(CNC34CC5CC(CC(C5)C3)C4)no2)cc1
Activity (Influenza A virus [1]): 92%

COc1ccsc1-c1cc(CNC23CC4CC(CC(C4)C2)C3)no1
Activity (Influenza A virus [1]): 39%

CCCc1cc(CNC23CC4CC(CC(C4)C2)C3)no1
Activity (Influenza A virus [1]): 73%

c1cc(-c2cc(CNC34CC5CC(CC(C5)C3)C4)no2)cs1
Activity (Influenza A virus [1]): 47%

COc1ccsc1-c1cc(CNC23CC4CC(CC(O)(C4)C2)C3)no1
Activity (Influenza A virus [1]): 33% | EC50 (Influenza A virus [2]): 0.404 µM

c1coc(-c2cc(CNC34CC5CC(CC(C5)C3)C4)no2)c1
Activity (Influenza A virus [1]): 47%

c1csc(-c2nnc(CNC34CC5CC(CC(C5)C3)C4)s2)c1
Activity (Influenza A virus [1]): 39%

Clc1ccccc1-c1nc(CNC23CC4CC(CC(C4)C2)C3)no1
Activity (Influenza A virus [1]): 88%

COc1cccc(-c2cc(CNC34CC5CC(CC(C5)C3)C4)no2)c1
Activity (Influenza A virus [1]): 39%

c1csc(-c2cc(CNC34CC5CC(C3)C3(CO3)C(C5)C4)no2)c1 (configuration not stated)
Activity (Influenza A virus [1]): 72%

Clc1ccccc1-c1cc(CNC23CC4CC(CC(C4)C2)C3)no1
Activity (Influenza A virus [1]): 84%

OC12CC3CC(C1)CC(NCc1cc(-c4cccs4)on1)(C3)C2
Activity (Influenza A virus [1]): 40% | EC50 (Influenza A virus [2]): 0.51 µM

C(NC12CC3CC(CC(C3)C1)C2)c1noc(C2CC2)n1
Activity (Influenza A virus [1]): 82%

c1c(CNC23CC4CC(CC(C4)C2)C3)noc1C1CCC1
Activity (Influenza A virus [1]): 42%

c1c(CNC23CC4CC(CC(C4)C2)C3)noc1C1CCCCC1
Activity (Influenza A virus [1]): 57%

c1csc(-c2cc(NC34CC5CC(CC(C5)C3)C4)no2)c1
Activity (Influenza A virus [1]): 32% | EC50 (Influenza A virus [2]): 0.353 µM

NC12CC3CC(CC(C3)C1)C2 [AMANTADINE]
EC50 (Influenza A virus [2]): 22.5 µM

COc1ccccc1-c1nc(CNC23CC4CC(CC(C4)C2)C3)no1
Activity (Influenza A virus [1]): 66%

c1cc(-c2nc(CNC34CC5CC(CC(C5)C3)C4)no2)cs1
Activity (Influenza A virus [1]): 74%

CC(C)c1cc(CNC23CC4CC(CC(C4)C2)C3)no1
Activity (Influenza A virus [1]): 66%
